A short description of this data set: Stability of COMPOUND A in human intestinal fluids, Procedure F (suspension, no separation of excess), first table. The format is in vitro ADME. The following applies: summary of Example 5. The method, then:
Fasted Intestinal Fluids: the fluids from 4 different subjects were collected with a naso-jejunal tube after fasting overnight and pooled.
Procedure F (COMPOUND A and COMPOUND B in suspension, the degradation immediately stopped without separation of excess compound): Stock K=COMPOUND B suspension (0.5 mg/mL)
Dilute 1 part of COMPOUND B suspension (stock J) with 3 parts of FeSSIF pH6.5 solution.
500 μL of freshly thawed intestinal fluids (fasted and stimulated state) were added to 1.2 mg of COMPOUND A in a 1 mL glass vial. The suspended compound was stirred for 15 min at 37° C. to obtain wetting and a homogenous suspension. In parallel, 4 glass vials were prepared with 20 μL of a COMPOUND B suspension at different concentrations. These concentrations were obtained by mixing FeSSIF pH6.5 and COMPOUND B suspension (stock K) in different ratios, respectively 1:[…], 1:1, 0:1 to obtain 0, 1, 2 and 4% related to COMPOUND A. At time zero, 100 μL of COMPOUND A suspension preincubated at 37° C. were added to the 20 μL COMPOUND B suspension. The mixture was incubated at 37° C. with gentle stirring. After 15 min and 60 min, the reaction was stopped by mixing a 50 μL sample with 150 μL isopropanol and centrifuged at 5′000 rpm during 5 min. The clear supernatant was analyzed for the hydrolysis product and its oxidized form by HPLC.

Take `CCCCCCCCCCC[C@@H](C[C@@H]1OC(=O)[C@H]1CCCCCC)OC(=O)[C@H](CC(C)C)NC=O` [COMPOUND B, 1-(3-hexyl-4-oxo-oxetan-2-yl)tridecan-2-yl 2-formyl-amino-4-methyl-pentanoate, reference compound]: the “Effect of COMPOUND B on gastrointestinal enzyme induced hydrolytic degradation of COMPOUND A” value was “efficiently prevents gastrointestinal enzyme induced hydrolytic degradation of COMPOUND A”.

The values above are taken from patent US20100144853A1, “NOVEL COMBINED ADMINISTRATION” (priority 2008, published 2010).
